From US20110038885A1, “CHEMOKINE ANALOGS” (priority 2007, published 2011)
Bridge positions count the residues as written; N and C are the ends. Square brackets hold non-standard residues; d marks the D form. Peptide text beside a SMILES is read from it. * marks the point of attachment. Ac6c = NC1(C(=O)O)CCCCC1; Octanoyl = CCCCCCCC(=O)*; AEEA = NCCOCCOCC(=O)O; Aoc = NCCCCCCCC(=O)O; X2 = CCCCCCO*

Assays:
MCP-1 = experiment: In vitro chemotaxis (trans-well migration) v MCP-1; type: cell-based, human
How it was run: (§1)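 Human THP-1 monocytes (10^4-10^6) with agent at varying concentrations in upper trans-well chamber; IL-8 or MCP-1 in lower chamber at a migration-inducing concentration, 37° C for e.g. 4 hours. Migrated cells quantified by MTT (595 nm) against a THP-1 standard curve; cytotoxicity and non-chemokine chemoattractant controls run.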

IL-8 = experiment: In vitro chemotaxis, inhibition v IL-8; type: cell-based, human; design: concentration or dose not given beside the values
How it was run: as §1

EC50 (MCP-1) | SMILES | v IL-8 inhibition (%) (IL-8)
> 1000 nM | CC[C@H](C)[C@@H]1NC(=O)[C@H](Cc2c[nH]c3ccccc23)NC(=O)[C@H](CCCCN)NC(=O)[C@H](CCC(N)=O)NC(=O)[C@H](CCCCN)NC(=O)[C@@H](NC(C)=O)CSSC[C@@H](C(=O)N2CCC[C@@H]2C(=O)N[C@H](CC(=O)O)C(=O)N[C@H](CC(C)C)C(N)=O)NC(=O)[C@H](CCC(N)=O)NC1=O [Example 157, Ac-c(Cys-Lys-Gln-Lys-Trp-Ile-Gln-Cys)-D-Pro-D-Asp-D-Leu-NH2] (Ac-CKQKWIQC[dP][dD][dL]-NH2; disulfide 1-8) | −15%
50 nM | CC[C@H](C)[C@@H]1NC(=O)[C@H](Cc2c[nH]c3ccccc23)NC(=O)[C@H](CCCCN)NC(=O)[C@H](CCC(N)=O)NC(=O)[C@H](CCCCN)NC(=O)[C@@H]2CCCN2C(=O)[C@@H](CC(=O)O)NC(=O)[C@H](CC(C)C)NC(=O)[C@@H](NC(C)=O)CSSC[C@@H](C(N)=O)NC(=O)[C@H](CCC(N)=O)NC1=O [Example 31, Ac-c(Cys-Leu-D-Asp-Pro-Lys-Gln-Lys-Trp-Ile-Gln-Cys)-NH2] (Ac-CL[dD]PKQKWIQC-NH2; disulfide 1-11) | 95.8%
> 1000 nM | CC[C@H](C)[C@@H]1NC(=O)[C@H](Cc2c[nH]c3ccccc23)NC(=O)[C@H](CCCCN)NC(=O)[C@H](CCC(N)=O)NC(=O)[C@H](CCCCN)NC(=O)[C@@H]2CCCN2C(=O)[C@H](CC(=O)O)NC(=O)[C@H](CC(C)C)NC(=O)[C@H](N)CSSC[C@@H](C(N)=O)NC(=O)[C@H](CCC(N)=O)NC1=O [Example 39, c(D-Cys-Leu-Asp-Pro-Lys-Gln-Lys-Trp-Ile-Gln-Cys)-NH2] (H-[dC]LDPKQKWIQC-NH2; disulfide 1-11) | 3.8%
3000 nM | CC[C@H](C)[C@@H]1NC(=O)[C@@H](NC(=O)[C@H](Cc2c[nH]c3ccccc23)NC(=O)[C@@H](N)CCCCN)CSSC[C@@H](C(N)=O)NC(=O)[C@H](CCC(N)=O)NC1=O [Example 15, Lys-Trp-c(Cys-Ile-Gln-Cys)-NH2] (H-KWCIQC-NH2; disulfide 3-6) | 10.5%
8000 nM | CC[C@H](C)[C@@H]1NC(=O)[C@H](Cc2c[nH]c3ccccc23)NC(=O)[C@@H](NC(=O)[C@H](CCCCN)NC(=O)[C@H](CCC(N)=O)NC(=O)[C@H](CCCCN)NC(=O)[C@@H]2CCCN2C(=O)[C@H](CC(=O)O)NC(=O)[C@@H](N)CC(C)C)CSSC[C@@H](C(N)=O)NC(=O)[C@H](CCC(N)=O)NC1=O [Example 13, Leu-Asp-Pro-Lys-Gln-Lys-c(Cys-Trp-Ile-Gln-Cys)-NH2] (H-LDPKQKCWIQC-NH2; disulfide 7-11) | 5.8%
8 nM | CCCCCCOC(=O)C[C@H]1NC(=O)[C@H]2CCCN2C(=O)[C@@H](CCCCN)NC(=O)[C@@H](CCC(N)=O)NC(=O)[C@@H](CCCCN)NC(=O)[C@@H](Cc2c[nH]c3ccccc23)NC(=O)[C@@H]([C@H](C)CC)NC(=O)[C@@H](CCC(N)=O)NC(=O)[C@H](N)CSSC[C@H](C(N)=O)NC(=O)[C@@H](CC(C)C)NC1=O [Example 161, c(D-Cys-D-Gln-D-Ile-D-Trp-D-Lys-D-Gln-D-Lys-D-Pro-D-Asp(1-hexanol)-D-Leu-D-Cys)-NH2] (H-[dC][dQ][dI][dW][dK][dQ][dK][dP][dD](X2)[dL][dC]-NH2; disulfide 1-11) | 99.8%
25 nM | CC[C@H](C)[C@@H]1NC(=O)[C@H](Cc2c[nH]c3ccccc23)NC(=O)[C@H](CCCCN)NC(=O)[C@H](CCC(N)=O)NC(=O)[C@H](CCCCN)NC(=O)[C@@H]2CCCN2C(=O)[C@H](CC(=O)O)NC(=O)[C@@H](N)CSSC[C@@H](C(N)=O)NC(=O)[C@H](CCC(N)=O)NC1=O [Example 42, c(Cys-Asp-Pro-Lys-Gln-Lys-Trp-Ile-Gln-Cys)-NH2] (H-CDPKQKWIQC-NH2; disulfide 1-10) | 94.4%
150 nM | CC[C@H](C)[C@@H]1NC(=O)[C@H](Cc2c[nH]c3ccccc23)NC(=O)[C@H](CCCCN)NC(=O)[C@@H](NC(=O)[C@H](CCC(N)=O)NC(=O)[C@H](CCCCN)NC(=O)[C@@H]2CCCN2)CSSC[C@@H](C(N)=O)NC(=O)[C@H](CCC(N)=O)NC1=O [Example 45, Pro-Lys-Gln-c(Cys-Lys-Trp-Ile-Gln-Cys)-NH2] (H-PKQCKWIQC-NH2; disulfide 4-9) | 74.2%
400 nM | CC[C@@H](C)[C@H]1NC(=O)[C@@H](CCC(N)=O)NC(=O)[C@H](N)CSSC[C@H](C(=O)N[C@H](C(=O)N[C@@H](CCC(=O)O)C(=O)NCCCCCCCC(=O)O)[C@@H](C)CC)NC(=O)[C@@H](CC(C)C)NC(=O)[C@@H](CC(=O)O)NC(=O)[C@H]2CCCN2C(=O)[C@@H](CCCCN)NC(=O)[C@@H](CCC(N)=O)NC(=O)[C@@H](CCCCN)NC(=O)[C@@H](Cc2c[nH]c3ccccc23)NC1=O [Example 140, c(D-Cys-D-Gln-D-Ile-D-Trp-D-Lys-D-Gln-D-Lys-D-Pro-D-Asp-D-Leu-D-Cys)-Ile-Glu-Aoc-OH] (H-[dC][dQ][dI][dW][dK][dQ][dK][dP][dD][dL][dC]IE[Aoc]-OH; disulfide 1-11) | 43.4%
330 nM | CC[C@@H](C)[C@H]1NC(=O)[C@@H](CCC(N)=O)NC(=O)[C@H](N)CSSC[C@H](C(=O)N[C@@H](C(=O)N[C@H](CCC(=O)O)C(=O)NCCCCCCCC(=O)O)C(C)C)NC(=O)[C@@H](CC(C)C)NC(=O)[C@@H](CC(=O)O)NC(=O)[C@H]2CCCN2C(=O)[C@@H](CCCCN)NC(=O)[C@@H](CCC(N)=O)NC(=O)[C@@H](CCCCN)NC(=O)[C@@H](Cc2c[nH]c3ccccc23)NC1=O [Example 141, c(D-Cys-D-Gln-D-Ile-D-Trp-D-Lys-D-Gln-D-Lys-D-Pro-D-Asp-D-Leu-D-Cys)-D-Val-D-Glu-Aoc-OH] (H-[dC][dQ][dI][dW][dK][dQ][dK][dP][dD][dL][dC][dV][dE][Aoc]-OH; disulfide 1-11) | 27.5%
> 1000 nM | CCCCCCCC(=O)NCCCC[C@@H]1NC(=O)[C@@H](CC(=O)O)NC(=O)[C@H]2CCCN2C(=O)[C@@H](CCCCN)NC(=O)[C@@H](CCC(N)=O)NC(=O)[C@@H](CCCCN)NC(=O)[C@@H](Cc2c[nH]c3ccccc23)NC(=O)[C@@H]([C@H](C)CC)NC(=O)[C@@H](CCC(N)=O)NC(=O)[C@H](N)CSSC[C@H](C(=O)O)NC(=O)[C@@H](CC(C)C)NC1=O [Example 154, c(D-Cys-D-Gln-D-Ile-D-Trp-D-Lys-D-Gln-D-Lys-D-Pro-D-Asp-Lys(Nε-octanoyl)-D-Leu-D-Cys)-OH] (H-[dC][dQ][dI][dW][dK][dQ][dK][dP][dD]K(Octanoyl)[dL][dC]-OH; disulfide 1-12) | 9.8%
2000 nM | CC[C@H](C)[C@@H]1NC(=O)[C@@H](NC(=O)[C@H](Cc2c[nH]c3ccccc23)NC(=O)[C@H](CCCCN)NC(=O)[C@H](CCC(N)=O)NC(=O)[C@H](CCCCN)NC(=O)[C@@H]2CCCN2C(=O)[C@H](CC(=O)O)NC(=O)[C@@H](N)CC(C)C)CSSC[C@@H](C(N)=O)NC(=O)[C@H](CCC(N)=O)NC1=O [Example 14, Leu-Asp-Pro-Lys-Gln-Lys-Trp-c(Cys-Ile-Gln-Cys)-NH2] (H-LDPKQKWCIQC-NH2; disulfide 8-11) | 10.5%
20 nM | CC[C@H](C)[C@@H]1NC(=O)[C@H](Cc2c[nH]c3ccccc23)NC(=O)[C@H](CCCCN)NC(=O)[C@H](CCC(N)=O)NC(=O)[C@@H](NC(=O)[C@@H](N)CCCCN)CSSC[C@@H](C(N)=O)NC(=O)[C@H](CCC(N)=O)NC1=O [Example 47, Lys-c(Cys-Gln-Lys-Trp-Ile-Gln-Cys)-NH2] (H-KCQKWIQC-NH2; disulfide 2-8) | 103.2%
> 1000 nM | CC[C@H](C)[C@@H]1NC(=O)[C@H](Cc2c[nH]c3ccccc23)NC(=O)[C@H](CCCCN)NC(=O)[C@H](CCC(N)=O)NC(=O)[C@H](CCCCN)NC(=O)[C@@H]2CCCN2C(=O)[C@@H](NC(C)=O)CSSC[C@@H](C(=O)N[C@H](CC(=O)O)C(=O)N[C@H](CC(C)C)C(N)=O)NC(=O)[C@H](CCC(N)=O)NC1=O [Example 158, Ac-c(Cys-Pro-Lys-Gln-Lys-Trp-Ile-Gln-Cys)-D-Asp-D-Leu-NH2] (Ac-CPKQKWIQC[dD][dL]-NH2; disulfide 1-9) | −17.9%
28 nM | CCCCCCCC(=O)NCCCC[C@H](NC(=O)COCCOCCNC(=O)[C@H]1CSSC[C@@H](N)C(=O)N[C@H](CCC(N)=O)C(=O)N[C@H]([C@H](C)CC)C(=O)N[C@H](Cc2c[nH]c3ccccc23)C(=O)N[C@H](CCCCN)C(=O)N[C@H](CCC(N)=O)C(=O)N[C@H](CCCCN)C(=O)N2CCC[C@@H]2C(=O)N[C@H](CC(=O)O)C(=O)N[C@H](CC(C)C)C(=O)N1)C(=O)O [Example 151, c(D-Cys-D-Gln-D-Ile-D-Trp-D-Lys-D-Gln-D-Lys-D-Pro-D-Asp-D-Leu-D-Cys)-Doc-Lys(Nε-octanoyl)-OH] (H-[dC][dQ][dI][dW][dK][dQ][dK][dP][dD][dL][dC][AEEA]K(Octanoyl)-OH; disulfide 1-11) | 103.7%
> 1000 nM | CC(=O)N[C@H]1CSSC[C@@H](C(N)=O)NC(=O)[C@H](CCC(N)=O)NC(=O)C2(CCCCC2)NC(=O)[C@H](Cc2c[nH]c3ccccc23)NC(=O)[C@H](CCCCN)NC(=O)[C@H](CCC(N)=O)NC(=O)[C@H](CCCCN)NC(=O)[C@@H]2CCCN2C(=O)[C@H](CC(=O)O)NC(=O)[C@H](CC(C)C)NC1=O [Example 155, Ac-c(Cys-Leu-Asp-Pro-Lys-Gln-Lys-Trp-A6c-Gln-Cys)-NH2] (Ac-CLDPKQKW[Ac6c]QC-NH2; disulfide 1-11) | −1.5%
80 nM | CC[C@H](C)[C@@H]1NC(=O)[C@H](Cc2c[nH]c3ccccc23)NC(=O)[C@@H](NC(=O)[C@@H](N)CCCCN)CSSC[C@@H](C(N)=O)NC(=O)[C@H](CCC(N)=O)NC1=O [Example 51, Lys-c(Cys-Trp-Ile-Gln-Cys)-NH2] (H-KCWIQC-NH2; disulfide 2-6) | 115.9%
